The data set in a line: in vitro. The following applies: human, hela cells, % viability.

Usually viability stands for a read-out of living cells in per cent, often relative to untreated cells. Regarding `Cc1cc(C(C)(C)C)oc1C(=O)N1CCn2c(nnc2C2CC2)C1` [CBK283771], the viability at 28.5 h, 10 µM turned out to be 93.9%.
Under `O=C(c1cc(F)cc(F)c1)N1CCn2c(nnc2C2CC2)C1` [CBK283772] stands 95.9%; under `O=C(Cc1ccc(F)cc1Cl)N1CCn2c(nnc2C2CC2)C1` [CBK283773], 87.8%; under `CCn1cc(C(=O)N2CCCC2c2nc3ccccc3[nH]2)cn1` (stereo not drawn) [CBK283776], 109%.
In the case of `Cn1ccnc1C(NC(=O)N1CCOCC1)c1ccc(F)c(F)c1` (stereo not drawn) [CBK283781], the viability at 28.5 h, 10 µM is 87.4%.
`Cn1ccnc1C(NC(=O)c1ccccn1)c1ccc(F)c(F)c1` (stereo not drawn) [CBK283783]: the viability at 28.5 h, 10 µM was 91.6%.
For the compound `CCn1c(=O)n(CC(=O)N(C)C2CCCCC2)c2cccnc21` [CBK283786], the viability at 28.5 h, 10 µM was 86.3%.
Consider `Cc1ccc(C(C)C(=O)N2CCC(O)(c3ccccn3)CC2)cc1` (stereo not drawn) [CBK283787], for which the viability at 28.5 h, 10 µM was 86.7%.
The result for `COC(=O)[C@H]1CN(C(=O)c2cccnc2)C[C@@H]1c1ccc(F)cc1` [CBK283788] reads 92.1%.
Regarding `O=C(c1ccccc1-c1ccccc1)N1CCn2cnnc2C1` [CBK283789], the viability at 28.5 h, 10 µM amounted to 85.2%.
`Cn1c(=O)n(CC(=O)N2CCc3ccccc32)c2cccnc21` [CBK283792]: the viability at 28.5 h, 10 µM came to 106%.
Regarding `CC1Cc2ccccc2N1C(=O)Cn1c(=O)n(C)c2ncccc21` (stereo not drawn) [CBK283793], the viability at 28.5 h, 10 µM was 90.7%.
In the case of `CN1CC=C(/C=C/c2ccc(Sc3ncccn3)o2)CC1` [CBK283797], the viability at 28.5 h, 10 µM was determined as 82.3%.
Consider `COc1ccc2cc(C(=O)N3CCC(c4ccncc4)CC3)[nH]c2c1` [CBK283799], for which the viability at 28.5 h, 10 µM was determined as 86.4%.
As to `CC(C)NC(=O)Cn1nc(-c2cc3c(s2)CCC3)oc1=O` [CBK283801], the viability at 28.5 h, 10 µM came to 88.3%.
In the case of `CCN(CC)C(=O)NC(c1ccccc1OC)c1nccn1C` (stereo not drawn) [CBK283803], the viability at 28.5 h, 10 µM amounted to 80.8%.
Regarding `CC1CC(C)CN(C(=O)Cn2ncc3cccn3c2=O)C1` (stereo not drawn) [CBK283805], the viability at 28.5 h, 10 µM was determined as 81.2%.
For the compound `Cn1ccnc1C(NC(=O)c1cccnc1)c1ccc(F)c(F)c1` (stereo not drawn) [CBK283807], the viability at 28.5 h, 10 µM was found to be 100%.
With `Cn1ccnc1C(NC(=O)c1ccncc1)c1ccc(F)c(F)c1` (stereo not drawn) [CBK283808], the viability at 28.5 h, 10 µM came to 104%.
Turning to `Cc1ncccc1C(=O)NC(c1ccc(F)c(F)c1)c1nccn1C` (stereo not drawn) [CBK283809], the viability at 28.5 h, 10 µM was found to be 90.8%.
For the compound `CCn1c(=O)n(CC(=O)NCc2cccs2)c2cccnc21` [CBK283811], the viability at 28.5 h, 10 µM amounted to 88.3%.
In the case of `O=C(c1cccnc1)C1CCN(C(=O)C2CCCCC2)CC1` [CBK283817], the viability at 28.5 h, 10 µM was found to be 90%.
On to `Cc1ccc2cc(C)c3nn(CC(=O)NC4CC4)c(=O)n3c2c1C` [CBK283822], for which the viability at 28.5 h, 10 µM was determined as 83.8%.
The result for `CCn1nc2c(C)cc3cc(OC)ccc3n2c1=O` [CBK283823] reads 74.6%; that for `CCn1c(=O)n(CC(=O)N2CCc3ccccc32)c2cccnc21` [CBK283826], 89.4%.
As for `CC(NC(=O)Cc1cccs1)c1nc2cccnc2n1C(C)C` (stereo not drawn) [CBK283828], the viability at 28.5 h, 10 µM is 81%.
Regarding `CC(NC(=O)Cc1ccccc1F)c1nc2cccnc2n1C(C)C` (stereo not drawn) [CBK283829], the viability at 28.5 h, 10 µM is 90.8%.
Take `CC(NC(=O)Cc1cccc(F)c1)c1nc2cccnc2n1C(C)C` (stereo not drawn) [CBK283831]: the viability at 28.5 h, 10 µM worked out at 98.5%.
The result for `COc1ccccc1C(NC(=O)N(C(C)C)C(C)C)c1nccn1C` (stereo not drawn) [CBK283834] reads 81.9%; that for `O=C(NCCn1nc(-c2cccs2)ccc1=O)c1ccccc1F` [CBK283835], 86.1%; that for `O=C(NCCn1nc(-c2cccs2)ccc1=O)C1CCCCC1` [CBK283837], 90.7%.
Consider `O=C(NCCn1nc(-c2cccs2)ccc1=O)c1ccco1` [CBK283838], for which the viability at 28.5 h, 10 µM was determined as 90.1%.
For the compound `O=C(CC1CCCC1)NCCn1nc(-c2cccs2)ccc1=O` [CBK283841], the viability at 28.5 h, 10 µM turned out to be 91.8%.
On to `O=C(Cc1ccsc1)NCCn1nc(-c2cccs2)ccc1=O` [CBK283842], for which the viability at 28.5 h, 10 µM turned out to be 96.5%.
For the compound `CCn1c(=O)n(CC(=O)N2CC(C)CC(C)C2)c2cccnc21` (stereo not drawn) [CBK283845], the viability at 28.5 h, 10 µM came to 95.3%.
As to `OC1(C2CNc3ccccc3C2)CCNCC1` (stereo not drawn) [CBK283847], the viability at 28.5 h, 10 µM amounted to 110%.
Take `Cc1nn(Cc2cccnc2)c(=O)n2cccc12` [CBK283848]: the viability at 28.5 h, 10 µM is 105%.
The result for `CC(C)N(C(=O)N1CCC(c2cccnc2)CC1)C(C)C` [CBK283850] reads 97.6%; that for `CO[C@H]1CC[C@H](C(=O)NC(c2ccccc2)c2nccn2C)CC1` (stereo partly drawn) [CBK283852], 93.8%; that for `CC(C)n1c(=O)n(C(=O)c2ccco2)c2cccnc21` [CBK283856], 102%.
Turning to `CN1CC=C(/C=C/C2=Cc3ccccc3OC2)CC1` [CBK283857], the viability at 28.5 h, 10 µM is 89.1%.
Regarding `Cc1cc(/C=C/C2=CCN(C)CC2)c(C)n1C1CC1` [CBK283858], the viability at 28.5 h, 10 µM came out at 85.9%.
For `COc1ccc(/C=C/C2=CCN(C)CC2)cc1Cn1cccn1` [CBK283859], the viability at 28.5 h, 10 µM amounted to 90.8%.
On to `CC(C(=O)NCCn1nc(-c2ccco2)ccc1=O)c1ccccc1` (stereo not drawn) [CBK283861], for which the viability at 28.5 h, 10 µM was found to be 93.6%.
With `CC(C)C(=O)NCCn1nc(-c2ccco2)ccc1=O` [CBK283863], the viability at 28.5 h, 10 µM worked out at 97%.
Take `O=C(CN1C(=O)N2CCN=C2c2ccccc21)N1CCCCC1` [CBK283865]: the viability at 28.5 h, 10 µM was determined as 91.1%.
As to `O=C(O)Cc1cc2c(n1Cc1ccc(F)cc1)CCCC2=O` [CBK283866], the viability at 28.5 h, 10 µM worked out at 93.8%.
As to `O=c1n(Cc2ccccn2)c2cccnc2n1Cc1cccs1` [CBK283867], the viability at 28.5 h, 10 µM is 90.2%.
Take `CCn1cc(C(=O)N2CCCCC2c2nc3cc(C)ccc3[nH]2)cn1` (stereo not drawn) [CBK283869]: the viability at 28.5 h, 10 µM is 84.6%.
Take `Cc1ccc2c(c1)cc(C)c1nn(CC(=O)N3CCCCC3)c(=O)n12` [CBK283870]: the viability at 28.5 h, 10 µM came out at 81.6%.
As for `Cc1ccc2c(c1)cc(C)c1nn(CC(=O)NC3CC3)c(=O)n12` [CBK283873], the viability at 28.5 h, 10 µM was 99.2%.
On to `Cc1cc(C)c2c(c1)cc(C)c1nn(CC(=O)N3CCCC3)c(=O)n12` [CBK283876], for which the viability at 28.5 h, 10 µM amounted to 85.5%.
Regarding `Cc1cc2ccccc2n2c(=O)n(CC(=O)N3CCCCC3)nc12` [CBK283878], the viability at 28.5 h, 10 µM worked out at 85.8%.
The result for `CCN(CC)C(=O)Cn1nc2c(C)cc3ccccc3n2c1=O` [CBK283879] reads 84.1%.
`Cc1cc2ccccc2n2c(=O)n(CC(=O)N3CCC(C)CC3)nc12` [CBK283881]: the viability at 28.5 h, 10 µM stood at 92.7%.
`Cc1cc2ccccc2n2c(=O)n(CC(=O)N3CCCCC3C)nc12` (stereo not drawn) [CBK283882]: the viability at 28.5 h, 10 µM is 87.1%.
Turning to `Cc1cc2ccccc2n2c(=O)n(CC(=O)N3CCCCCC3)nc12` [CBK283883], the viability at 28.5 h, 10 µM was 82.3%.
For the compound `Cc1cc2ccccc2n2c(=O)n(CC(=O)N(C(C)C)C(C)C)nc12` [CBK283885], the viability at 28.5 h, 10 µM amounted to 87.1%.
For the compound `COCCn1c(=O)n(Cc2ccc(F)cc2)c2cccnc21` [CBK283886], the viability at 28.5 h, 10 µM came to 81%.
In the case of `O=C(NCCCn1ccnc1)c1ncoc1-c1ccccc1` [CBK283887], the viability at 28.5 h, 10 µM came out at 99%.

The record behind these values is article PMC12040169 (PLOS Biology, 2025).
